The values below come from patent publication US20080279924A1, “HLA class I A2 tumor associated antigen peptides and vaccine compositions” (priority 1999, published 2008).

The test system of one assay is PBMC from healthy donors. The format is cell-based, human.
Another assay concerns HLA-DR molecules. As to conditions: cited from earlier work.

With aKXVAAWTLKAAa-NH2 [PADRE], the “donors with primary T cell responses” value in the assay on PBMC from healthy donors was “all three donors”.

QYIKANSKFIGITE [Epitope 553.01]: in the assay with PBMC from healthy donors, the “antigen concentration at which the 10,000 cpm proliferation level was reached” value is on record as “about 10,000 ng/ml” and the “donors with primary T cell responses” value is 2 out of 3. In the assay with HLA-DR molecules, the “number of DR molecules bound of DR molecules tested” value is on record as “seven of 16”.
